Assay results as given in BigSolDB 2.1.

Nc1ncnc2nc[nH]c12
solubility (mole fraction)
Details	278.15 K	283.15 K	288.15 K	293.15 K	298.15 K	303.15 K	308.15 K	313.15 K	318.15 K
in DMF	0.00192	0.00205	0.00217	0.00232	0.00246	0.00262	0.00278	0.00295	0.00312
in DMSO	–	–	–	0.0111	0.0117	0.0124	0.0131	0.0137	0.0144
in NMP	0.0095	0.00971	0.0099	0.0101	0.0103	0.0105	0.0107	0.0109	0.0112
in propylene glycol	0.0106	0.0108	0.0109	0.0111	0.0112	0.0114	0.0115	0.0117	0.0118
in water	5.43e-05	6.88e-05	8.54e-05	0.000108	0.000134	0.000171	0.000216	0.000264	0.000321
